Measured values taken from patent publication US12275731B2, “Azaindole inhibitors of wild-type and mutant forms of LRRK2” (DANA-FARBER CANCER INSTITUTE, INC., priority 2018, dated 2025).

How the values were obtained:
Assay in all cases: KinomeScan profiling
Format in all cases: binding
[1] = target: T1, ABL1(Y253F)-phosphorylated (Homo sapiens, UniProt P00519, Y253F); settings: read-out: % control
T1 construct: purchased KinomeScan®
In short: (§1)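 Single-point competition binding screen: 1 μM, DMSO, 468 kinases. Results reported as % control from RLU, normalised to DMSO and positive-control wells. Activity threshold: <35% control.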

EGFR = EGFR (Homo sapiens, UniProt P00533); settings: read-out: % control
Sequence of EGFR (P00533 25-1210): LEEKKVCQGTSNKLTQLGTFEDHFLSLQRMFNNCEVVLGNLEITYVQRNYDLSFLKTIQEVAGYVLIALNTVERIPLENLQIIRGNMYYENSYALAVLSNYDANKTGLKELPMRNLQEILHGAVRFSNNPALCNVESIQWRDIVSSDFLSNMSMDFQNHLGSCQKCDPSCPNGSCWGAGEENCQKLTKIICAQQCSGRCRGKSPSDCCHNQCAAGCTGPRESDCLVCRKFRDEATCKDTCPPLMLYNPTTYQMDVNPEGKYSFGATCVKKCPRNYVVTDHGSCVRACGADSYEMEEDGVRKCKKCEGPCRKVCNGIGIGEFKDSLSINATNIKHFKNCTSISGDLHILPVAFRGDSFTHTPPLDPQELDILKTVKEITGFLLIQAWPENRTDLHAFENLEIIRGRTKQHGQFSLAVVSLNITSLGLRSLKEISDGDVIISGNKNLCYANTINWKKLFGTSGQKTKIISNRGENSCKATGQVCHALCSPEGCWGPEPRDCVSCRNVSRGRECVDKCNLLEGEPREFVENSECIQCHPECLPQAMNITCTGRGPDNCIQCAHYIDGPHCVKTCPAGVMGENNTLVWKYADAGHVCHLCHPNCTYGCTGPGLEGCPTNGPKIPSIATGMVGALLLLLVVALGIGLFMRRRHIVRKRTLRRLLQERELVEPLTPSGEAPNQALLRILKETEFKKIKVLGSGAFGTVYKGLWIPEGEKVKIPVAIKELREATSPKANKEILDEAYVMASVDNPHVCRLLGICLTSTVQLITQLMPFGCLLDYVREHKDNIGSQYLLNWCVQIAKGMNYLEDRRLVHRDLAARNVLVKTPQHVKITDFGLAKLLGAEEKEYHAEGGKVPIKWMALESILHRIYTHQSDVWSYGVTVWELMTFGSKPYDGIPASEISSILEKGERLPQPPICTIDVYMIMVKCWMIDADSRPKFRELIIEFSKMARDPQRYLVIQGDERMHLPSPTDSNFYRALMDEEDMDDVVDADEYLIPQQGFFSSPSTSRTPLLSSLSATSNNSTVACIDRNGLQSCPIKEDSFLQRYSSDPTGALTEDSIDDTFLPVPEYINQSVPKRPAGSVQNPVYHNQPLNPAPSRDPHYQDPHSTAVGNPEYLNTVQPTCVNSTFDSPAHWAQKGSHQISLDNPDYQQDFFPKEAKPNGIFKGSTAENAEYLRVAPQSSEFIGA
In short: as §1

EPHA3 = target: T2, EPHA3 (Homo sapiens, UniProt P29320); settings: EPHA3, 1 μM; read-out: % control
T2 sequence (P29320 21-983): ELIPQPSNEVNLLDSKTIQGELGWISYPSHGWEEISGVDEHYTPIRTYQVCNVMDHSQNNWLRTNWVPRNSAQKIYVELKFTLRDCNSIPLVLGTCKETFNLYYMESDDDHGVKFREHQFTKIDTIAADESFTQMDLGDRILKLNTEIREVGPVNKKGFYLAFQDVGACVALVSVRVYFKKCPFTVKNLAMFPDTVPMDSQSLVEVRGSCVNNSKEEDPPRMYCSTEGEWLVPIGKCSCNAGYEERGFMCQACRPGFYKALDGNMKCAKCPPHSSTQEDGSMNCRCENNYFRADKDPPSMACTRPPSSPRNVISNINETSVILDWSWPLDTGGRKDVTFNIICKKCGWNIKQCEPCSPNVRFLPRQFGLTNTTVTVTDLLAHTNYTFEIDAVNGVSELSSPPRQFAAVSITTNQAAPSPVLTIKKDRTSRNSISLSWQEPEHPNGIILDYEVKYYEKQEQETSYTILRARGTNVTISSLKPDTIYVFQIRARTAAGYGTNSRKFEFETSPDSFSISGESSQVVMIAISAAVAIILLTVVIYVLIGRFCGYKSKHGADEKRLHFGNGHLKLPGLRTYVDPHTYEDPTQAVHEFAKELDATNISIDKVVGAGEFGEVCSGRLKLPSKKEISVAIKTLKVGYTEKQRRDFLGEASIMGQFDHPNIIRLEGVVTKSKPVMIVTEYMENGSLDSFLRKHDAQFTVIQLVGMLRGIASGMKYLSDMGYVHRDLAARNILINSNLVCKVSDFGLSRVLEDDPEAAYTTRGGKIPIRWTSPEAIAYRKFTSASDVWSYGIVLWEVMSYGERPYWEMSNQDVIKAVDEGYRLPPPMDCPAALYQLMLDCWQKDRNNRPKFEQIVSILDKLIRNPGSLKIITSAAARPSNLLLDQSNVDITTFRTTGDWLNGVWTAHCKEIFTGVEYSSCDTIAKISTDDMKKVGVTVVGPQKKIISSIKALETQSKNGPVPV
In short: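 Test agents were profiled at a single concentration of 1 μM (DMSO vehicle) on a near-complete set of 468 kinases. Signal is reported relative to vehicle (100%) and a fully displacing control (0%).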

GRK1 = target: T3, GRK1 (Homo sapiens, UniProt Q15835); settings: GRK1, 1 μM; read-out: % control
T3 sequence (Q15835 1-563): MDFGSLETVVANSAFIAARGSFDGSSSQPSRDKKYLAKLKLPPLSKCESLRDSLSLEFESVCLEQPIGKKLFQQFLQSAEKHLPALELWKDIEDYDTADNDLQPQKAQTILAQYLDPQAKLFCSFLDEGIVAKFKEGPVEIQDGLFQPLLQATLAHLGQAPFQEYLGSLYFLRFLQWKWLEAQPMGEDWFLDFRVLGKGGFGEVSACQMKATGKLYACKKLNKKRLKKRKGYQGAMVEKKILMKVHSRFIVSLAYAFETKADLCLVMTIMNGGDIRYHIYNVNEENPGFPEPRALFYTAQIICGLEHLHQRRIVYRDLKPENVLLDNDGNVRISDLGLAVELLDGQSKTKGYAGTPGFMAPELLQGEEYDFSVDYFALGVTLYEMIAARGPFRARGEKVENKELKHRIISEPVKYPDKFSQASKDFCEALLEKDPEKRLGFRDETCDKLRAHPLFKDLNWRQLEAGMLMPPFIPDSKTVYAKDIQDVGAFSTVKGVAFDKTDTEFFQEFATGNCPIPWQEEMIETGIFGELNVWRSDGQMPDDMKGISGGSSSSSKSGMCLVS
In short: as §1

[2] = target: T4, RSK2(Kin.Dom.1-N-terminal) (Homo sapiens, UniProt P51812); settings: read-out: % control
T4 construct: RSK2(Kin.Dom.1-N-terminal)
T4 sequence (P51812 68-327 limits assumed): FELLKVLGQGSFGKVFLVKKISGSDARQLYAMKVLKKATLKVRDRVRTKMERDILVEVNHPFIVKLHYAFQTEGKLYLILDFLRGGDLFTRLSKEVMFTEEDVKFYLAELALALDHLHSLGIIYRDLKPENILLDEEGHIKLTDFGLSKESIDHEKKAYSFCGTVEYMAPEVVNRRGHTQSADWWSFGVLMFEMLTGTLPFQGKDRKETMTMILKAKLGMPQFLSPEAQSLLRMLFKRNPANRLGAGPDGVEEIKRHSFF
In short: as §1

[3] = target: T5, RSK3(Kin.Dom.2-C-terminal) (Homo sapiens, UniProt Q15349); settings: read-out: % control
T5 construct: RSK3(Kin.Dom.2-C-terminal)
T5 sequence (Q15349 415-672 limits assumed): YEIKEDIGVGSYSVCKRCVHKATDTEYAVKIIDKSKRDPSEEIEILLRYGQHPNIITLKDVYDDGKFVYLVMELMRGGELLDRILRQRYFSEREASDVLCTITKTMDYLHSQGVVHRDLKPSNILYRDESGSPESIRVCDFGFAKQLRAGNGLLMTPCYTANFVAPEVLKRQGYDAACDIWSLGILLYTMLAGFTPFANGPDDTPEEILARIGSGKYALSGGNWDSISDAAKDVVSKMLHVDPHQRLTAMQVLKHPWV
In short: as §1

SRPK2 = target: T6, SRPK2 (Homo sapiens, UniProt P78362); settings: SRPK2, 1 μM; read-out: % control
T6 construct: purchased KinomeScan® (panel service)
T6 sequence (P78362 whole entry): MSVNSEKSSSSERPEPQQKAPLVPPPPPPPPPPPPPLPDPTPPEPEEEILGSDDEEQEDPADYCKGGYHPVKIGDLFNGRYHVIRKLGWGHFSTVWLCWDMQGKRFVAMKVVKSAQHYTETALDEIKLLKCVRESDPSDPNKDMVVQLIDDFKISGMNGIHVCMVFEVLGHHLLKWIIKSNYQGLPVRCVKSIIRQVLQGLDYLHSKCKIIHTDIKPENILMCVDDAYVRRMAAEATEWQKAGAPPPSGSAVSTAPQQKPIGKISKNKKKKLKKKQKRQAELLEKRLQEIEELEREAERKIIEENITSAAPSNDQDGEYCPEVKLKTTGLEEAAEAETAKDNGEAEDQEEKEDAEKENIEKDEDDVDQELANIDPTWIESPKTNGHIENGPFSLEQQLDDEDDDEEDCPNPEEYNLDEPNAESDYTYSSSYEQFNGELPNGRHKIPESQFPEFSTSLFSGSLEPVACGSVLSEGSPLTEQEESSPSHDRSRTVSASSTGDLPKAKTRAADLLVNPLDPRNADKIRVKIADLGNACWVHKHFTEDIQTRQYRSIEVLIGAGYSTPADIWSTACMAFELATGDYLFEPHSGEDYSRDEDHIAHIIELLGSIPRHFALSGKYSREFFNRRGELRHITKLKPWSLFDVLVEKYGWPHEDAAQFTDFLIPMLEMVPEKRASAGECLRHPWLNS
In short: as §1

TLK2 = TLK2 (Homo sapiens, UniProt Q86UE8); settings: TLK2, 1 μM; read-out: % control
Sequence of TLK2 (Q86UE8 whole entry): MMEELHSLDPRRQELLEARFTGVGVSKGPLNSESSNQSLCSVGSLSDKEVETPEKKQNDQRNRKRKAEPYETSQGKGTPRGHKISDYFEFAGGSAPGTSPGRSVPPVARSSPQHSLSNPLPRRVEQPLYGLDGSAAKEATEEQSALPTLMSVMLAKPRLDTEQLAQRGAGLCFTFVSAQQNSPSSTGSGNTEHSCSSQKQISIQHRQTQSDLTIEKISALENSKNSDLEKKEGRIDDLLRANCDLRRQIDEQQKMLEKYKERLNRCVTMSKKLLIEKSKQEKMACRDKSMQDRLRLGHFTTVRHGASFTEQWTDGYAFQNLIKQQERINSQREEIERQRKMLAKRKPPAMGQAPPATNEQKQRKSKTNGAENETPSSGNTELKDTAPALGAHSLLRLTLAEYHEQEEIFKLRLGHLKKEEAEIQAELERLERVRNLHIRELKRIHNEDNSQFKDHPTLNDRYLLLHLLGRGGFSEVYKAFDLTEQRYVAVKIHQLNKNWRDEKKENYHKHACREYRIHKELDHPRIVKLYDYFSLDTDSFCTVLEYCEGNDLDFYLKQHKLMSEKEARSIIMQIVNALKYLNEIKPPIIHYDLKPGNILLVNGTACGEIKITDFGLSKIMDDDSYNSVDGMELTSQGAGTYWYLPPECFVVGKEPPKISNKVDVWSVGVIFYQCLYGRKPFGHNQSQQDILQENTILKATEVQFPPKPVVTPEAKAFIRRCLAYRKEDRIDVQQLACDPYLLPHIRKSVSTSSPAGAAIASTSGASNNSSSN
In short: as §1

YANK1 = YANK1 (Homo sapiens, UniProt Q8WU08); settings: YANK1, 1 μM; read-out: % control
Sequence of YANK1 (Q8WU08 whole entry): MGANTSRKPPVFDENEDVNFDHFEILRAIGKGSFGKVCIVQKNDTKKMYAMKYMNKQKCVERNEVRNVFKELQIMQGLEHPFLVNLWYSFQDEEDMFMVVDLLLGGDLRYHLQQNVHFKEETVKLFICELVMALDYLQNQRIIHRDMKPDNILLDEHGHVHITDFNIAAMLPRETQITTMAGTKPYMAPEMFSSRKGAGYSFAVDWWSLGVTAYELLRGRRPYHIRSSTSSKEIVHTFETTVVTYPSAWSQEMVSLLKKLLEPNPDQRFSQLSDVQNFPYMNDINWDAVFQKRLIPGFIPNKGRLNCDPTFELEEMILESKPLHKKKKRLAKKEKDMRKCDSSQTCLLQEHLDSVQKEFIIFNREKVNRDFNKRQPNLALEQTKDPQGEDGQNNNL
In short: as §1

p38-alpha = p38-alpha (Homo sapiens, UniProt Q16539); settings: read-out: % control
Sequence of p38-alpha (Q16539 whole entry): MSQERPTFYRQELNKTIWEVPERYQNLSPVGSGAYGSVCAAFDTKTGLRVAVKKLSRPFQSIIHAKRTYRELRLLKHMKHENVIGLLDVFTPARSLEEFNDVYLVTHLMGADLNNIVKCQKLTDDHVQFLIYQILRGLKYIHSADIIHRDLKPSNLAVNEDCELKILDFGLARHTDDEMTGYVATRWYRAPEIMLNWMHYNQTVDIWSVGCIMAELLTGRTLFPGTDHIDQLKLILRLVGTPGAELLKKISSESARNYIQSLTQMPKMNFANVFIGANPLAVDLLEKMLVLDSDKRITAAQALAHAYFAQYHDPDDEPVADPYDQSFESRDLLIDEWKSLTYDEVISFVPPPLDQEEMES
In short: as §1

p38-gamma = target: T7, p38-gamma (Homo sapiens, UniProt P53778); settings: read-out: % control
T7 sequence (P53778 1-367): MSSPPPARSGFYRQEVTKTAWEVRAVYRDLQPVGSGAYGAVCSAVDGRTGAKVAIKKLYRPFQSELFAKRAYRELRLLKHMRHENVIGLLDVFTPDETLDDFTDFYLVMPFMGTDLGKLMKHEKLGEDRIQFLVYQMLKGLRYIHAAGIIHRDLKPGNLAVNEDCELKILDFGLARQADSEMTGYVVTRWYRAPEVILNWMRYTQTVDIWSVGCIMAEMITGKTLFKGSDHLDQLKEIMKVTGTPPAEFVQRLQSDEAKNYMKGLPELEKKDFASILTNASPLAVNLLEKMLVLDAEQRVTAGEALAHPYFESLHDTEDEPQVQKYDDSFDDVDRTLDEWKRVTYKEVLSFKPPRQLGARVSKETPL
In short: as §1

## CNc1c(-c2cnn([C@H]3CCN(C(C)=O)C[C@@H]3F)c2)cnc2[nH]cc(Cl)c12 [Compound 77, 1-((3S,4S)-4-(4-(3-chloro-4-(methylamino)-1H-pyrrolo[2,3-b]pyridin-5-yl)-1H-pyrazol-1-yl)-3-fluoropiperidin-1-yl)ethan-1-one]
[1]
  remaining binding at 1 µM: 79%
EGFR
  remaining binding at 1 µM: 95%
EPHA3
  remaining binding at 1 µM: 90%
GRK1
  remaining binding at 1 µM: 60%
[2]
  remaining binding at 1 µM: 54%
[3]
  remaining binding at 1 µM: 100%
SRPK2
  remaining binding at 1 µM: 12%
TLK2
  remaining binding at 1 µM: 99%
YANK1
  remaining binding at 1 µM: 100%
p38-alpha
  remaining binding at 1 µM: 100%
p38-gamma
  remaining binding at 1 µM: 97%

## O=C(c1ccc(-c2cnc3[nH]cc(Cl)c3c2NC2CCCC2)cc1)N1CCC(N2CCOCC2)CC1 [Compound 101, (4-(3-chloro-4-(cyclopentylamino)-1H-pyrrolo[2,3-b]pyridin-5-yl)phenyl)(4-morpholinopiperidin-1-yl)methanone]
[1]
  remaining binding at 1 µM: 100%
EGFR
  remaining binding at 1 µM: 97%
EPHA3
  remaining binding at 1 µM: 82%
GRK1
  remaining binding at 1 µM: 84%
[2]
  remaining binding at 1 µM: 65%
[3]
  remaining binding at 1 µM: 77%
SRPK2
  remaining binding at 1 µM: 60%
TLK2
  remaining binding at 1 µM: 100%
YANK1
  remaining binding at 1 µM: 100%
p38-alpha
  remaining binding at 1 µM: 100%
p38-gamma
  remaining binding at 1 µM: 79%

## CNc1c(-c2ccc(C(=O)N3CCC(N4CCOCC4)CC3)cc2)cnc2[nH]cc(Cl)c12 [Compound 96, (4-(3-chloro-4-(methylamino)-1H-pyrrolo[2,3-b]pyridin-5-yl)phenyl)(4-morpholinopiperidin-1-yl)methanone]
[1]
  remaining binding at 1 µM: 98%
EGFR
  remaining binding at 1 µM: 100%
EPHA3
  remaining binding at 1 µM: 100%
GRK1
  remaining binding at 1 µM: 63%
[2]
  remaining binding at 1 µM: 54%
[3]
  remaining binding at 1 µM: 78%
SRPK2
  remaining binding at 1 µM: 16%
TLK2
  remaining binding at 1 µM: 100%
YANK1
  remaining binding at 1 µM: 100%
p38-alpha
  remaining binding at 1 µM: 92%
p38-gamma
  remaining binding at 1 µM: 92%
